The values that follow come from patent publication US5843889A, “Glycopeptide antibiotic derivatives” (Eli Lilly and Company, priority 1997, dated 1998).

What all share (assay): MIC, standard broth micro-dilution assay
Common to all, as to assay type: cell-based

One experiment concerns Entercoccus faecalis 276. The procedure: (§1) The formula I compounds have in vitro and in vivo activity against Gram-positive pathogenic bacteria. The MIC's were determined using a standard broth micro-dilution assay.
Experiment [1] has as its system Entercoccus gallinarum 245. The procedure:
as §1

Experiment [2] has as its system Entercoccus faecalis 2041. How it is done:
as §1

Converted amounts (≈) assume the structure as drawn. A value given as a limit tells only on which side of the number the result lay.

What is called MIC is the lowest concentration found to suppress growth. Read a low MIC as inhibition by little substance. For `CNC(CC(C)C)C(=O)NC1C(=O)NC(CC(N)=O)C(=O)NC2C(=O)NC3C(=O)NC(C(=O)NC(C(=O)O)c4cc(O)cc(O)c4-c4cc3ccc4O)C(OC3CC(C)(N)C(O)C(C)O3)c3ccc(c(Cl)c3)Oc3cc2cc(c3OC2OC(CO)C(O)C(O)C2OC2CC(C)(NCc3c4ccccc4c(Cl)c4ccccc34)C(O)C(C)O2)Oc2ccc(cc2Cl)C1O` (stereo not drawn) [Compound 18, 9-[10-chloro]anthranylmethyl], the minimal inhibitory concentration (MIC) came to 1 µg/mL (≈ 0.55 µM) in the experiment on Entercoccus faecalis 276, 1 µg/mL (≈ 0.55 µM) in experiment [1] and 0.25 µg/mL (≈ 0.138 µM) in experiment [2].

With `CNC(CC(C)C)C(=O)NC1C(=O)NC(CC(N)=O)C(=O)NC2C(=O)NC3C(=O)NC(C(=O)NC(C(=O)O)c4cc(O)cc(O)c4-c4cc3ccc4O)C(OC3CC(C)(N)C(O)C(C)O3)c3ccc(c(Cl)c3)Oc3cc2cc(c3OC2OC(CO)C(O)C(O)C2OC2CC(C)(NCc3cccc(OC4CCCCC4)c3)C(O)C(C)O2)Oc2ccc(cc2Cl)C1O` (stereo not drawn) [Compound 153], the MIC against Entercoccus faecalis 276 was 0.5 µg/mL (≈ 0.281 µM); in experiment [1] it was 1 µg/mL (≈ 0.562 µM); in experiment [2], no more than 0.06 µg/mL.

`CNC(CC(C)C)C(=O)NC1C(=O)NC(CC(N)=O)C(=O)NC2C(=O)NC3C(=O)NC(C(=O)NC(C(=O)O)c4cc(O)cc(O)c4-c4cc3ccc4O)C(OC3CC(C)(N)C(O)C(C)O3)c3ccc(c(Cl)c3)Oc3cc2cc(c3OC2OC(CO)C(O)C(O)C2OC2CC(C)(NCc3ccc(-c4ccccc4)cc3F)C(O)C(C)O2)Oc2ccc(cc2Cl)C1O` (stereo not drawn) [Compound 206, 4-phenyl-2-fluorobenzyl]: the MIC against Entercoccus faecalis 276 was no more than 0.06 µg/mL; in experiment [1], 1 µg/mL (≈ 0.563 µM); in experiment [2], 0.25 µg/mL (≈ 0.141 µM).

In the case of `CNC(CC(C)C)C(=O)NC1C(=O)NC(CC(N)=O)C(=O)NC2C(=O)NC3C(=O)NC(C(=O)NC(C(=O)O)c4cc(O)cc(O)c4-c4cc3ccc4O)C(OC3CC(C)(N)C(O)C(C)O3)c3ccc(c(Cl)c3)Oc3cc2cc(c3OC2OC(CO)C(O)C(O)C2OC2CC(C)(NCC3=CCC4CC3C4(C)C)C(O)C(C)O2)Oc2ccc(cc2Cl)C1O` (stereo not drawn) [Compound 170], the MIC against Entercoccus faecalis 276 is 0.5 µg/mL (≈ 0.29 µM); in experiment [1], 4 µg/mL (≈ 2.32 µM); in experiment [2] it was no more than 0.06 µg/mL.

On to `CNC(CC(C)C)C(=O)NC1C(=O)NC(CC(N)=O)C(=O)NC2C(=O)NC3C(=O)NC(C(=O)NC(C(=O)O)c4cc(O)cc(O)c4-c4cc3ccc4O)C(OC3CC(C)(N)C(O)C(C)O3)c3ccc(c(Cl)c3)Oc3cc2cc(c3OC2OC(CO)C(O)C(O)C2OC2CC(C)(NCc3ccc(Oc4ccc(Cl)c(Cl)c4)cc3)C(O)C(C)O2)Oc2ccc(cc2Cl)C1O` (stereo not drawn) [Compound 81, 4-[3,4-dichlorophenoxy]benzyl], for which the MIC against Entercoccus faecalis 276 was no more than 0.06 µg/mL; in experiment [1] it was 0.25 µg/mL (≈ 0.136 µM); in experiment [2], no more than 0.06 µg/mL.

In the case of `CNC(CC(C)C)C(=O)NC1C(=O)NC(CC(N)=O)C(=O)NC2C(=O)NC3C(=O)NC(C(=O)NC(C(=O)O)c4cc(O)cc(O)c4-c4cc3ccc4O)C(OC3CC(C)(N)C(O)C(C)O3)c3ccc(c(Cl)c3)Oc3cc2cc(c3OC2OC(CO)C(O)C(O)C2OC2CC(C)(NCc3ccc(-c4ccc(Cl)cc4)cc3)C(O)C(C)O2)Oc2ccc(cc2Cl)C1O` (stereo not drawn) [Compound 229, 4-[4-chlorophenyl]benzyl-A82846B], the MIC in the experiment on Entercoccus faecalis 276 is 0.25 µg/mL (≈ 0.139 µM); in experiment [1], 2 µg/mL (≈ 1.12 µM); in experiment [2], no more than 0.06 µg/mL.

Take `CNC(CC(C)C)C(=O)NC1C(=O)NC(CC(N)=O)C(=O)NC2C(=O)NC3C(=O)NC(C(=O)NC(C(=O)O)c4cc(O)cc(O)c4-c4cc3ccc4O)C(OC3CC(C)(N)C(O)C(C)O3)c3ccc(c(Cl)c3)Oc3cc2cc(c3OC2OC(CO)C(O)C(O)C2OC2CC(C)(NCCc3ccc(OCc4ccccc4)cc3)C(O)C(C)O2)Oc2ccc(cc2Cl)C1O` (stereo not drawn) [Compound 68, 4-benzyloxyphenethyl]: the MIC with Entercoccus faecalis 276 was no more than 0.06 µg/mL; in experiment [1], 4 µg/mL (≈ 2.22 µM); in experiment [2], no more than 0.06 µg/mL.
